Experimental data reported in BindingDB's records for doi:10.1021/jm960728j (Uppsala University, 1997).

Target: T1, Dimer of Gag-Pol polyprotein [489-587] (Human immunodeficiency virus 1, UniProt P12497)
T1 construct: 489-587
Assay: Protease Inhibition Assay
Settings: pH 5.5; 37 °C
From the text: The IC50 value is the inhibitor concentration that results in 50% of HIV-1 protease activity measured by a spectrophotometric assay using a chromophoric peptide.

`O=C1N(Cc2ccc(CO)cc2)[C@H](Cc2ccccc2)[C@H](O)[C@@H](O)[C@@H](Cc2ccccc2)N1Cc1ccc(CO)cc1` [(4R,5S,6S,7R)-4,7-dibenzyl-5,6-dihydroxy-1,3-bis({[4-(hydroxymethyl)phenyl]methyl})-1,3-diazepan-2-one] was tested, and the Ki was under 1 nM.

With `O=C1N(Cc2ccc(CO)cc2)[C@H](COc2ccccc2)[C@H](O)[C@@H](O)[C@@H](COc2ccccc2)N1Cc1ccc(CO)cc1` [(4R,5S,6S,7R)-5,6-dihydroxy-1,3-bis({[4-(hydroxymethyl)phenyl]methyl})-4,7-bis(phenoxymethyl)-1,3-diazepan-2-one] the Ki was under 1 nM.
